Experiments:
Cannabinoid CB1 Receptor = biological target: T1, Cannabinoid CB1 Receptor (Homo sapiens, UniProt P21554); experiment: Binding assay, cannabinoid CB1 receptor ([3H]-CP-55,940 displacement, SK-N-MC cell membranes); details: for inhibition at 0.2 µM: read-out: Cannabinoid CB1 Receptor Binding, percent inhibition
T1 construct: expressed in transfected cells; semi-purified membrane pellet

Cannabinoid CB2 Receptor = biological target: T2, Cannabinoid CB2 Receptor (Homo sapiens, UniProt P34972); experiment: Binding assay, cannabinoid CB2 receptor ([3H]-CP-55,940 displacement, SK-N-MC cell membranes); details: test concentration of 0.2 μM, human CB2 in SK-N-MC membranes; for inhibition at 0.2 µM: read-out: Cannabinoid CB2 Receptor Binding, percent inhibition
T2 construct: expressed in transfected cells; semi-purified membrane pellet
T2 sequence (P34972 whole entry): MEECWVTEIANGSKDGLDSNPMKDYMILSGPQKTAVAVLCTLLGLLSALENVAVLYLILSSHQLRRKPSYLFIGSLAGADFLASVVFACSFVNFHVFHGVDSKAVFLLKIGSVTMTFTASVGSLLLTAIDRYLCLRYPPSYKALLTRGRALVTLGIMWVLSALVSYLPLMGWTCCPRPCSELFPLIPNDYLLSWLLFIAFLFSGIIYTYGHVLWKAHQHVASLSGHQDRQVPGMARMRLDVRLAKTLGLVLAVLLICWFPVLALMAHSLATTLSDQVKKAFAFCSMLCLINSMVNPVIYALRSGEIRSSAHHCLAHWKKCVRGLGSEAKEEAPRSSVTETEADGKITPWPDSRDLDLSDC
In short: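 Membranes from SK-N-MC cells stably expressing human CB2 were incubated 90 min at 30 °C with 0.2 nM [3H]-CP-55,940 in Tris buffer, pH 7.5, with BSA; 10 uM WIN 55,212 defined non-specific binding. Filter-bound counts gave IC50 by linear regression, or % inhibition at 0.2 μM.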

[1] = test concentration of 0.2 μM, human CB1 in SK-N-MC membranes

T1 sequence (P21554 whole entry): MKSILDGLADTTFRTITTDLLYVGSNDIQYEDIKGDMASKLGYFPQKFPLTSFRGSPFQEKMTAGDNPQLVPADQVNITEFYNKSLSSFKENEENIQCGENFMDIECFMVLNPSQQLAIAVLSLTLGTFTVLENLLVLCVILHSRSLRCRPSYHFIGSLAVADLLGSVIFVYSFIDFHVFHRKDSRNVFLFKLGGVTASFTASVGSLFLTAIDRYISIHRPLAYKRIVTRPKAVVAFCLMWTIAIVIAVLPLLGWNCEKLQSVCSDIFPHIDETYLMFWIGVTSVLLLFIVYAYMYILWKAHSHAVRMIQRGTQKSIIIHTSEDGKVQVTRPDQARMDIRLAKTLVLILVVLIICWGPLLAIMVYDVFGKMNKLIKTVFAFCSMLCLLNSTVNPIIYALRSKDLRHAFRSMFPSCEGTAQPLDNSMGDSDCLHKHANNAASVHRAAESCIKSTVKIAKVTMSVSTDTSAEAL

Molecule: azepan-1-yl-[1-(2,4-dichloro-phenyl)-7-(4-fluoro-benzyl)-1,4,6,7-tetrahydro-pyrano[4,3-c]pyrazol-3-yl]-methanone [Cpd 25]
- Cannabinoid CB1 Receptor Binding, percent inhibition (Cannabinoid CB1 Receptor; [1]): 50%
- Cannabinoid CB2 Receptor Binding, percent inhibition (Cannabinoid CB2 Receptor): 0%

Molecule: C[C@@H](NC(=O)c1nn(-c2ccc(Cl)cc2Cl)c2c1COC/C2=C\c1ccc(Cl)s1)C1CCCCC1 [Cpd 52, (7Z)-7-(5-chloro-thiophen-2-ylmethylene)-1-(2,4-dichloro-phenyl)-1,4,6,7-tetrahydro-pyrano[4,3-c]pyrazole-3-carboxylic acid [(R)-1-cyclohexyl-ethyl]-amide]
- IC50 (Cannabinoid CB1 Receptor): 9 nM
- inhibition at 0.2 µM (Cannabinoid CB1 Receptor; [1]): 88%
- inhibition at 0.2 µM (Cannabinoid CB2 Receptor): 21%

Molecule: C[C@@H](NC(=O)c1nn(-c2ccc(Cl)cc2Cl)c2c1COC/C2=C\c1cccs1)c1ccccc1 [Cpd 32, (7Z)-1-(2,4-dichloro-phenyl)-7-thiophen-2-ylmethylene-1,4,6,7-tetrahydro-pyrano[4,3-c]pyrazole-3-carboxylic acid [(R)-1-phenyl-ethyl]-amide]
- IC50 (Cannabinoid CB1 Receptor): 20 nM
- inhibition at 0.2 µM (Cannabinoid CB1 Receptor; [1]): 76%
- inhibition at 0.2 µM (Cannabinoid CB2 Receptor): 11%

Molecule: CC1CCCC(C)N1NC(=O)c1nn(-c2ccc(Cl)cc2Cl)c2c1COC/C2=C\c1cccs1 (centres unmarked) [Cpd 37, (7Z)-1-(2,4-dichloro-phenyl)-7-thiophen-2-ylmethylene-1,4,6,7-tetrahydro-pyrano[4,3-c]pyrazole-3-carboxylic acid (2,6-dimethyl-piperidin-1-yl)-amide]
- inhibition at 0.2 µM (Cannabinoid CB1 Receptor; [1]): 61%
- inhibition at 0.2 µM (Cannabinoid CB2 Receptor): 20%

Molecule: O=C(NN1CCCC1)c1nn(-c2ccc(Cl)cc2Cl)c2c1COC/C2=C\c1ccc(Cl)o1 [Cpd 72, (7Z)-7-(5-chloro-furan-2-ylmethylene)-1-(2,4-dichloro-phenyl)-1,4,6,7-tetrahydro-pyrano[4,3-c]pyrazole-3-carboxylic acid pyrrolidin-1-ylamide]
- inhibition at 0.2 µM (Cannabinoid CB1 Receptor; [1]): 48%
- inhibition at 0.2 µM (Cannabinoid CB2 Receptor): 8%

Molecule: O=C(N[C@H](CO)c1ccccc1)c1nn(-c2ccc(Cl)cc2Cl)c2c1COC/C2=C\c1ccsc1 [Cpd 48, (7Z)-1-(2,4-dichloro-phenyl)-7-thiophen-3-ylmethylene-1,4,6,7-tetrahydro-pyrano[4,3-c]pyrazole-3-carboxylic acid [(1S)-2-hydroxy-1-phenyl-ethyl]-amide]
- inhibition at 0.2 µM (Cannabinoid CB1 Receptor; [1]): 36%
- inhibition at 0.2 µM (Cannabinoid CB2 Receptor): 17%

Molecule: COC[C@H]1CCCN1NC(=O)c1nn(-c2ccc(Cl)cc2Cl)c2c1COC/C2=C\c1ccc(Cl)s1 [Cpd 74, (7Z)-7-(5-chloro-thiophen-2-ylmethylene)-1-(2,4-dichloro-phenyl)-1,4,6,7-tetrahydro-pyrano[4,3-c]pyrazole-3-carboxylic acid [(2R)-2-methoxymethyl-pyrrolidin-1-yl]-amide]
- inhibition at 0.2 µM (Cannabinoid CB1 Receptor; [1]): 65%
- inhibition at 0.2 µM (Cannabinoid CB2 Receptor): 12%

Molecule: C[C@H](NC(=O)c1nn(-c2ccc(Cl)cc2Cl)c2c1COC/C2=C\c1ccc(Cl)s1)c1ccccc1 [Cpd 51, (7Z)-7-(5-chloro-thiophen-2-ylmethylene)-1-(2,4-dichloro-phenyl)-1,4,6,7-tetrahydro-pyrano[4,3-c]pyrazole-3-carboxylic acid [(S)-1-phenyl-ethyl]-amide]
- inhibition at 0.2 µM (Cannabinoid CB1 Receptor; [1]): 48%
- inhibition at 0.2 µM (Cannabinoid CB2 Receptor): 15%

Molecule: COC[C@@H]1CCCN1NC(=O)c1nn(-c2ccc(Cl)cc2Cl)c2c1COC/C2=C\c1ccc(Cl)s1 [Cpd 73, (7Z)-7-(5-chloro-thiophen-2-ylmethylene)-1-(2,4-dichloro-phenyl)-1,4,6,7-tetrahydro-pyrano[4,3-c]pyrazole-3-carboxylic acid [(2S)-2-methoxymethyl-pyrrolidin-1-yl]-amide]
- inhibition at 0.2 µM (Cannabinoid CB1 Receptor; [1]): 57%
- inhibition at 0.2 µM (Cannabinoid CB2 Receptor): 11%

Molecule: CN(C(=O)c1nn(-c2ccc(Cl)cc2)c2c1COC/C2=C\c1ccc(F)cc1)c1ccccc1 [Cpd 14, (7Z)-1-(4-chloro-phenyl)-7-(4-fluoro-benzylidene)-1,4,6,7-tetrahydro-pyrano[4,3-c]pyrazole-3-carboxylic acid methyl-phenyl-amide]
- inhibition at 0.2 µM (Cannabinoid CB1 Receptor; [1]): 49%
- inhibition at 0.2 µM (Cannabinoid CB2 Receptor): 7%

Molecule: O=C(NN1CCCC1)c1nn(-c2ccc(Cl)cc2Cl)c2c1COC/C2=C\c1ccc(F)cc1 [Cpd 9, (7Z)-1-(2,4-dichloro-phenyl)-7-(4-fluoro-benzylidene)-1,4,6,7-tetrahydro-pyrano[4,3-c]pyrazole-3-carboxylic acid pyrrolidin-1-ylamide]
- inhibition at 0.2 µM (Cannabinoid CB1 Receptor; [1]): 58%
- inhibition at 0.2 µM (Cannabinoid CB2 Receptor): 0%

Molecule: CN1CCN(NC(=O)c2nn(-c3ccc(Cl)cc3Cl)c3c2COC/C3=C\c2ccc(F)cc2)CC1 [Cpd 30, (7Z)-1-(2,4-dichloro-phenyl)-7-(4-fluoro-benzylidene)-1,4,6,7-tetrahydro-pyrano[4,3-c]pyrazole-3-carboxylic acid (4-methyl-piperazin-1-yl)-amide]
- inhibition at 0.2 µM (Cannabinoid CB1 Receptor; [1]): 3%
- inhibition at 0.2 µM (Cannabinoid CB2 Receptor): 0%

Molecule: CN1CCN(NC(=O)c2nn(-c3ccc(Cl)cc3Cl)c3c2COCC3Cc2ccc(F)cc2)CC1 (centres unmarked) [Cpd 26, 1-(2,4-dichloro-phenyl)-7-(4-fluoro-benzyl)-1,4,6,7-tetrahydro-pyrano[4,3-c]pyrazole-3-carboxylic acid (4-methyl-piperazin-1-yl)-amide]
- inhibition at 0.2 µM (Cannabinoid CB1 Receptor; [1]): 8%
- inhibition at 0.2 µM (Cannabinoid CB2 Receptor): 13%

Molecule: CC1CCCC(C)N1NC(=O)c1nn(-c2ccc(Cl)cc2Cl)c2c1COC/C2=C\c1ccc(Cl)o1 (centres unmarked) [Cpd 68, (7Z)-7-(5-chloro-furan-2-ylmethylene)-1-(2,4-dichloro-phenyl)-1,4,6,7-tetrahydro-pyrano[4,3-c]pyrazole-3-carboxylic acid (2,6-dimethyl-piperidin-1-yl)-amide]
- inhibition at 0.2 µM (Cannabinoid CB1 Receptor; [1]): 38%
- inhibition at 0.2 µM (Cannabinoid CB2 Receptor): 22%

Molecule: C[C@@H](NC(=O)c1nn(-c2ccc(Cl)cc2Cl)c2c1COC/C2=C\c1ccc(Cl)o1)c1ccccn1 [Cpd 66, (7Z)-7-(5-chloro-furan-2-ylmethylene)-1-(2,4-dichloro-phenyl)-1,4,6,7-tetrahydro-pyrano[4,3-c]pyrazole-3-carboxylic acid [(R)-1-pyridin-2-yl-ethyl]-amide]
- inhibition at 0.2 µM (Cannabinoid CB1 Receptor; [1]): 58%
- inhibition at 0.2 µM (Cannabinoid CB2 Receptor): 10%

From patent publication US20100069341A1, “TETRAHYDRO-PYRANOPYRAZOLE CANNABINOID MODULATORS” (priority 2005, published 2010)
